Measurements: ChEMBL document CHEMBL1147623, “Interference of the galactose-dependent binding of lectins by novel pentapeptide ligands” (Bioorg Med Chem Lett, 2004)

Key:
[1] = Inhibition of galectin-1 binding was determined in solid phase assay
[2] = Inhibition of CG-14 binding was determined in solid phase assay; set-up: species or system Gallus gallus

| IC50 [1] [mM] | IC50 [2] [mM] | Compound |
| --- | --- | --- |
| 5.2 | 7.5 | CC(O)[C@@H](NC(=O)COCC(=O)NCCCOCCOCCOCCCN)C(=O)N[C@@H](Cc1ccc(O)cc1)C(=O)N[C@H](CC(=O)O)C(=O)N[C@@H](Cc1ccc(O)cc1)C(=O)N[C@@H](Cc1ccccc1)C(N)=O (some centres undefined) |
| 8 | 6.9 | CC(C)C[C@H](NC(=O)[C@H](Cc1ccc(O)cc1)NC(=O)[C@@H](CC(=O)O)NC(=O)COCC(=O)NCCCOCCOCCOCCCN)C(=O)N[C@@H](Cc1ccc(O)cc1)C(=O)N[C@@H](Cc1ccccc1)C(N)=O |
